logP and logD data for 10 compounds are collected here from the SangsterLogP compilation.

Molecules are shown by their SMILES.

Assay in the first data set: not given
Conditions: not given
`COc1ccc(N2Cn3c(nc4ccccc4c3=O)C2C)cc1` (stereo not given): the logP (usually the decadic logarithm of the partition coefficient of the neutral form, usually between octanol and water) is 1.73.

`CC1c2nc3ccccc3c(=O)n2CN1c1ccccc1` (stereo not given): the logP turned out to be 1.78. Still for that read-out and setting: the value for `CC1c2nc3ccccc3c(=O)n2CN1CCc1ccccc1` (stereo not given) was 1.8. On the same count and under the same terms, to `Cc1ccc(N2Cn3c(nc4ccccc4c3=O)C2C)cc1` (stereo not given) belongs 2.16; to `CC1c2nc3ccccc3c(=O)n2CN1Cc1ccccc1` (stereo not given), 1.74.

Another data set can be described thus: method code SF-AS, from DOI: 10.1080/01483919008048971. Conditions: pH 5.0.
Consider `CCCN1Cn2c(nc3ccccc3c2=O)C1C` (stereo not given), for which the logD (usually lipophilicity at a set pH, counting ionised and neutral species) stood at 1.4. Still for that read-out and setting: the value for `CCCCN1Cn2c(nc3ccccc3c2=O)C1C` (stereo not given) was 1.6. Compound `CC1c2nc3ccccc3c(=O)n2CN1C` (stereo not given) registered a logD of 0.85. `CC1c2nc3ccccc3c(=O)n2CN1CCO` (stereo not given) gave a logD of 0.46. The same measure, in the same setting: the value for `CCN1Cn2c(nc3ccccc3c2=O)C1C` (stereo not given) was 1.02.
